Laboratory results from patent publication US20160279042A1, “Dental Anti-Hypersensitivity Composition and Method” (The Research Foundation for the State University of New York, priority 1999, published 2016).

What was measured:
[1] = Hydraulic conductance of dentine discs (Greenhill and Pashley device), simulation of dentinal tubule plugging; details: for Hydraulic conductance, effect in words: summary of Table 1
Excerpt: A device developed by Greenhill and Pashley (J. Dental Research, 60:686-698, 1981) that enables simulation of dentinal tubule plugging in vivo was used to assess the effectiveness of the invention. Dentine discs that varied in thickness from 0.6 to 0.8 mm were cut with a Buhler Isomet saw from extracted caries-free molar teeth. They were then etched with 6% citric acid for two minutes to remove the smear layer and stored in 70% ethanol until used. A disc was mounted in the chamber of the apparatus with occlusal side facing upwards. The occlusal side is determined by passing light through a plastic grid beneath the section and observing the section with a dissecting microscope. The tubules appear further apart with the occlusal side up because of the lower tubular density of the dentine occlusally (Walton et al., J. Dental Research 55:639-642, 1976). Hydraulic conductance of fluid through the discs was determined as described by Greenhill and Pashley, supra.
Fluid containing levels of ions present in serum (Merck Manual, 1972) was used to perfuse the disc. Their concentrations in mM were as follows: Na-140.5, K-4.31, Ca-2.5, Mg-1.0, P-1.3. The pH of this solution is raised to 7.0 with sodium hydroxide. The solution was filtered through a […] (Millipore Corp., Marlborough, Mass. 01752) prior to use to remove any bacteria present. This solution is called artificial ionic dentinal fluid (AIDF). Hydrostatic pressure was created by a fluid reservoir leading via a glass capillary tube into the pulpal side of the chamber at a level 30 cm above that of the surface of the horizontally positioned disc. The distance traveled by an air bubble positioned in the AIDF in the capillary tubing between this pressure head and the pulpal side of the disc in a fixed period of time was converted to hydraulic conductance values in ml cm^−1 min^−1 cm H20^−1.
First, […] of AIDF was applied to the upward facing occlusal side of the section and AIDF was allowed to flow through the disc from the pulpal side for a period of five minutes. The distance that the air bubble moved inside the capillary on the pulpal side of the chamber was measured so that the rate of fluid movement through the disc could be calculated and converted to hydraulic conductance values. This procedure was repeated two more times or until a uniform flow rate was achieved on three consecutive runs. […] Next, the mixture was removed with a pipette, washed three times with 400 μl of deionized water and replaced with AIDF. The AIDF was allowed to flow through the dentine slice and hydraulic conductance readings were made at selected times up to 90 minutes.

[2] = Titration of artificial dentinal fluid, aggregation measured by absorbance; type: physicochemical; details: pH of 8.5 and above
Description: In order to determine the conditions that promote intrinsic plug formation, we performed the following experiments. We prepared a solution comprised of the ions present in dentinal fluid (which acted as artificial dentinal fluid) and progressively added (titrated) various solutions thereto to determine the conditions and substances conducive to the formation of aggregates (i.e., dentinal plugs). Aggregation was determined by means of measurement of the absorbance with a spectrophotometer.

Row | SMILES | Percent Reduction in Hydraulic Conductance ([1]; 0 minutes after exposure) | Percent Reduction in Hydraulic Conductance ([1]; 15 minutes after exposure) | Percent Reduction in Hydraulic Conductance ([1]; 30 minutes after exposure) | Percent Reduction in Hydraulic Conductance ([1]; 45 minutes after exposure) | Percent Reduction in Hydraulic Conductance ([1]; 60 minutes after exposure) | Percent Reduction in Hydraulic Conductance ([1]; 75 minutes after exposure) | Percent Reduction in Hydraulic Conductance ([1]; 90 minutes after exposure) | Hydraulic conductance, effect in words [1] | Aggregation (deposit formation) of dentinal fluid constituents [2]
1 | O=C([O-])[O-].[Ca+2] [calcium carbonate] | 0% | −18.5% | −12.3% | −5.5% | −4.1% | 5.5% | 5.5% | much smaller effects | not sufficient to produce deposit formation
2 | O=C([O-])O.[Na+] [sodium bicarbonate] | 0% | −10.6% | −1.0% | 7.2% | 11.5% | 15.9% | 19.7% | – | nor could one induce deposition
3 | N=C(N)NCCC[C@H](N)C(=O)O.O=C(O)O [arginine bicarbonate] | 0% | 11.7% | 15.6% | 14.4% | 14.5% | 16.1% | 16.1% | much smaller effects | aggregation of dentinal fluid constituents occurred
4 | [Na+].[OH-] [sodium hydroxide] | – | – | – | – | – | – | – | – | nor could one induce deposition
